Assay results: patent US20140329904A1, “INCREASING THE BIOAVAILABILITY OF HYDROXYCINNAMIC ACIDS” (NESTEC S.A., priority 2011, published 2014)
Like-named read-outs stand apart in the source and are kept apart here.

Assays:
[1] = test system: sulfotransferases (SULTs) in human intestinal S9; experiment: Inhibition of hydroxycinnamic acid sulfation by flavonoids in human intestinal S9; assay type: biochemical; conditions: human intestinal S9 0.4 mg/mL, 30 min, 37° C.
Method: (§1) The incubation mixture, in a final volume of 50 μL, consisted of 100 mM potassium phosphate buffer (pH 7.4), with 100 μM vitamin C, 100 μM PAPS and 1 mM DTT. Human liver S9 and intestinal S9 homogenates were used at 1 mg/mL and 0.4 mg/mL, respectively. The flavonoids were added from a 5 mM stock solution dissolved in DMSO, with final DMSO concentration equalized to 0.2%. Quercetin-3-glucuronide, quercetin-7-glucuronide and quercetin-3′-sulfate were dissolved in water. After a 15 min pre-incubation period, the reaction was initiated by adding 10 μM cinnamic acids and 25 μM dihydrocinnamic acids from a 50 mM stock solution in DMSO. To inhibit hydrolysis of quercetin glucuronides, in some analyses, 5 mM saccharolactone was added. After 30 min incubation in a 37° C. water bath, the reaction was stopped by addition of 10 μL ice-cold acetonitrile containing 500 mM HCl. Controls were treated under identical condition and consisted of samples with 0.2% DMSO (final concentration) added to the buffer. Samples were stored at −70° C. until analysis.
(§2) HPLC analyses were carried out using the Agilent 1200 series liquid chromatography system. For the analysis of caffeic acid, ferulic acid, isoferulic acid, dihydroferulic acid and their conjugates, chromatography was performed with a Zorbax XDB-C18 column (4.6×150 mm, 5 μm). The mobile phase consisted of 20 mM ammonium formate, pH 2.8 (A) and methanol (B). For the analysis of caffeic acid and conjugates, samples were eluted at 1 mL/min with 5% to 25% B in 20 min, followed by 80% B in 2 min and back to 5% B for 3 min. For the analysis of ferulic and isoferulic acid and their conjugates, the gradient was from 10% to 20% B in 10 min, to 60% B in 15 min, then set at 80% B for 2 min and back to 10% B for 3 min, at 1 mL/min. Dihydroferulic acid and conjugates analysis was carried out at 1 mL/min, from 10% to 20% B in 15 min, to 60% B in 10 min, up to 80% B for 2 min and finally to 10% B for 3 min. For dihydrocaffeic acid and conjugates, the analyses were performed with a Zorbax XDB-C18 column (4.6×50 mm, 1.8 μm) with 20 mM ammonium formate, pH 4.5 (A) and methanol (B) as the mobile phase. The gradient started at 3% (B) kept for 15 min, followed by an increase to 40% B in 5 min, and then returned to 3% B for 5 min. Samples were centrifuged and 25 μL of the supernatant were injected into the column. UV-detection carried out at 280 nm and 310 nm using photodiode array detector. Caffeic, ferulic and isoferulic acid were quantified at 310 nm, dihydroferulic acid and dihydrocaffeic acid at 280 nm.

[2] = test system: sulfotransferases (SULTs) in human liver S9; experiment: Inhibition of hydroxycinnamic acid sulfation by flavonoids and quercetin conjugates in human liver S9; assay type: biochemical
Method: as §1, §2

HepG2 cells = experiment: Inhibition of caffeic acid and ferulic acid sulfation in HepG2 cells; assay type: cell-based, human; conditions: caffeic and ferulic acids 10 μM, 4 h
Method: HepG2 cells (ATCC) were routinely cultured in 75 cm^2 cell culture flasks at 37° C. under a humidified 5% CO2/O2 atmosphere. The culture media consisted of Eagle's Minimum Essential Medium (EMEM) media supplemented with 10% fetal bovine serum (Sigma-Aldrich) and 100 U/ml penicillin-streptomycin. All experiments were performed with HepG2 cells between passages 80 to 95. For metabolic studies, HepG2 cells were seeded into 12-well plates at a cell density of 2×10^5 per well. The cell monolayers were allowed to grow over 96 h before they were used for experiments. Hydroxycinnamic acid metabolism experiments were carried out in serum-free media with 100 μM vitamin C and 1.8 mM CaCl2, adjusted to pH 6.5. Cinnamic acids (10 μM) and dihydrocinnamic acids (25 μM) were added from a 50 mM stock solution in DMSO. […] 0.4 mL of hydroxycinnamic acids, with or without the inhibitors, were added to the HepG2 cells and incubated for 4 h at 37° C. The incubation media were then collected, acidified with 1 mM vitamin C and dried under vacuum. The residue was extracted by sonication for 5 min and vortex for 1 min, first with 500 μL acetonitrile, followed by 500 μL methanol. […]
HPLC analyses were carried out using the Agilent 1200 series liquid chromatography system. […] Caffeic, ferulic and isoferulic acid were quantified at 310 nm, dihydroferulic acid and dihydrocaffeic acid at 280 nm.

[3] = 10 μM caffeic acid, read-out: IC50 for the inhibition of sulfation of Caffeic acid
[4] = 10 μM ferulic acid, read-out: IC50 for the inhibition of sulfation of Ferulic acid
[5] = human liver S9 1 mg/mL, 10 μM caffeic acid, 30 min, 37° C., flavonoids, read-out: IC50 for the inhibition of sulfation of Caffeic acid
[6] = human liver S9 1 mg/mL, 10 μM ferulic acid, 30 min, 37° C., flavonoids, read-out: IC50 for the inhibition of sulfation of Ferulic acid
[7] = liver S9, 10 μM caffeic acid, quercetin conjugates dissolved in water, read-out: IC50 for the inhibition of sulfation of Caffeic acid
[8] = liver S9, 10 μM ferulic acid, quercetin conjugates dissolved in water, read-out: IC50 for the inhibition of sulfation of Ferulic acid

Compound	IC50 [1, 3] [µM]	IC50 [1, 4] [µM]	IC50 [2, 5] [nM]	IC50 [2, 6] [nM]	Inhibitory effect on hydroxycinnamic acids sulfation (HepG2 cells)	Inhibition of sulfation of hydroxycinnamic acid, ranking in words ([2]; liver S9)	IC50 [2, 7] [nM]	IC50 [2, 8] [nM]
Oc1cc(O)c2c(c1)O[C@H](c1ccc(O)c(O)c1)[C@H](O)C2 [(−)-Epicatechin]	7.6	11	7400	7300	–	–	–	–
O=c1cc(-c2ccc(O)cc2)oc2cc(O)cc(O)c12 [Apigenin]	0.96	2.3	460	880	–	–	–	–
O=c1c(O)c(-c2ccc(O)c(O)c2)oc2cc(O)cc(O)c12 [Quercetin]	4.2	5.2	410	640	inhibitory effect	most effective inhibitors	–	–
O=C(CCc1ccc(O)cc1)c1c(O)cc(O)cc1O [Phloretin]	0.84	2.3	990	1000	–	–	–	–
O=c1c(O)c(-c2ccc(O)c(OS(=O)(=O)O)c2)oc2cc(O)cc(O)c12 [Quercetin-3′-sulfate]	–	–	–	–	–	–	6600	6700
COc1ccc([C@@H]2CC(=O)c3c(O)cc(O)cc3O2)cc1O [Hesperetin]	3.5	5.1	4300	5300	–	–	–	–
O=c1c(-c2ccc(O)cc2)coc2cc(O)ccc12 [Daidzein]	0.72	2.3	650	620	–	–	–	–
O=C(O)[C@H]1O[C@@H](Oc2c(-c3ccc(O)c(O)c3)oc3cc(O)cc(O)c3c2=O)[C@H](O)[C@@H](O)[C@@H]1O [Quercetin-3-glucuronide]	–	–	–	–	–	–	11000	12000
O=c1cc(-c2ccc(O)c(O)c2)oc2cc(O)cc(O)c12 [Luteolin]	1.3	3	80	530	inhibitory effect	–	–	–
O=c1c(-c2ccc(O)cc2)coc2cc(O)cc(O)c12 [Genistein]	0.77	1.5	590	1000	–	–	–	–
COc1cc(-c2oc3cc(O)cc(O)c3c(=O)c2O)ccc1O [Isorhamnetin]	4.4	4.7	2000	3700	–	–	–	–
O=C(O)[C@H]1O[C@@H](Oc2cc(O)c3c(=O)c(O)c(-c4ccc(O)c(O)c4)oc3c2)[C@H](O)[C@@H](O)[C@@H]1O [Quercetin-7-glucuronide]	–	–	–	–	–	–	9600	8000
O=c1c(O)c(-c2ccc(O)cc2)oc2cc(O)cc(O)c12 [Kaempferol]	2.5	3.8	920	3900	–	–	–	–
Oc1cc(O)c2c(c1)O[C@H](c1ccc(O)c(O)c1)[C@@H](O)C2 [(+)-Catechin]	5.8	7	4200	4400	–	–	–	–
